Test results as given in ChEMBL document CHEMBL2203057, “Characterisation of [¹¹C]PR04.MZ in Papio anubis baboon: a selective high-affinity radioligand for quantitative imaging of the dopamine transporter” (Bioorg Med Chem Lett, 2012).

Legend:
[1] = target: Sodium-dependent dopamine transporter (Rattus norvegicus, UniProt P23977); test: Binding affinity to rat DAT
[2] = target: T1, Sodium-dependent dopamine transporter (Homo sapiens, UniProt Q01959); test: Displacement of [3H]DA from human DAT expressed in HEK293 cells; type: cell-based
[3] = target: T2, Sodium-dependent noradrenaline transporter (Homo sapiens, UniProt P23975); test: Displacement of [3H]NE from human NET expressed in HEK293 cells; type: cell-based
[4] = target: T1, Sodium-dependent dopamine transporter; test: Displacement of [3H]WIN35,428 from human DAT expressed in HEK293 cells; type: cell-based
[5] = target: T3, Sodium-dependent serotonin transporter (Homo sapiens, UniProt P31645); test: Displacement of [3H]citalopram from human SERT expressed in HEK293 cells; type: cell-based
[6] = Lipophilicity, log D of the compound at pH 7.4 by HPLC; type: physicochemical; settings: buffer
[7] = target: T3, Sodium-dependent serotonin transporter; test: Displacement of [3H]5-HT from human SERT expressed in HEK293 cells; type: cell-based
[8] = target: T2, Sodium-dependent noradrenaline transporter; test: Displacement of [3H]nisoxetine from human NET expressed in HEK293 cells; type: cell-based
[9] = Drug uptake in Papio anubis ventral striatum at 137.4 +/- 66.8 MBq measured 7.5 +/- 0.5 mins post dose by dynamic PET scanning method; type: ADME, tissue-based
[10] = Drug uptake in Papio anubis midbrain at 137.4 +/- 66.8 MBq measured 60 mins post dose co-treated with 1.5 mg/kg DAT ligand GBR12909 by dynamic PET scanning method; type: ADME, organism-based; set-up: dose 1.5 mg/kg; settings: in vivo, 1 h
[11] = Stability in Sprague-Dawley rat brain assessed as intact compound level measured 60 mins post dose by HPLC; type: ADME, tissue-based; settings: read-out: Stability
[12] = Drug distribution in Papio anubis cerebellum assessed as drug influx constant at 137.4 +/- 66.8 MBq; type: ADME, tissue-based
[13] = Drug uptake in Papio anubis mid brain at 137.4 +/- 66.8 MBq measured 45 mins post dose by dynamic PET scanning method; type: ADME, tissue-based, Midbrain; settings: 0.75 h
[14] = Drug uptake in Papio anubis caudate nucleus assessed per 100 ml at 137.4 +/- 66.8 MBq measured 25 mins post dose by dynamic PET scanning method; type: ADME, tissue-based
[15] = Drug uptake in Papio anubis striatum assessed per 100 ml at 137.4 +/- 66.8 MBq measured 180 mins post dose by dynamic PET scanning method; type: ADME, tissue-based; settings: 3 h
[16] = Drug distribution in Papio anubis putamen assessed as drug efflux constant at 137.4 +/- 66.8 MBq; type: ADME, tissue-based
[17] = Drug distribution in Papio anubis ventral striatum assessed as drug efflux constant at 137.4 +/- 66.8 MBq; type: ADME, tissue-based
[18] = Drug uptake in Papio anubis midbrain at 137.4 +/- 66.8 MBq measured 60 mins post dose co-treated with DAT ligand [18F]PR04.MZ by dynamic PET scanning method; type: ADME, tissue-based; settings: 1 h
[19] = Drug distribution in Papio anubis putamen assessed as drug influx constant at 137.4 +/- 66.8 MBq; type: ADME, tissue-based
[20] = Drug uptake in Papio anubis putamen at 137.4 +/- 66.8 MBq measured 60 mins post dose co-treated with 1.5 mg/kg DAT ligand GBR12909 by dynamic PET scanning method; type: ADME, organism-based; set-up: dose 1.5 mg/kg; settings: in vivo, 1 h
[21] = Drug uptake in Papio anubis putamen at 137.4 +/- 66.8 MBq measured 60 mins post dose co-treated with DAT ligand [18F]PR04.MZ by dynamic PET scanning method; type: ADME, tissue-based; settings: 1 h
[22] = Drug distribution in Papio anubis cerebellum assessed as drug efflux constant at 137.4 +/- 66.8 MBq; type: ADME, tissue-based
[23] = Unbound fraction in Papio anubis plasma at 137.4 +/- 66.8 MBq; type: ADME, cell-free
[24] = Drug uptake in Papio anubis mid brain at 137.4 +/- 66.8 MBq measured 90 mins post dose by dynamic PET scanning method; type: ADME, tissue-based, Midbrain; settings: 1.5 h
[25] = test system: Brain; test: Drug uptake in Papio anubis whole brain assessed per 100 ml at 137.4 +/- 66.8 MBq measured 3 +/- 0.5 mins post dose by dynamic PET scanning method; type: ADME, tissue-based
[26] = Drug distribution in Papio anubis midbrain assessed as drug influx constant at 137.4 +/- 66.8 MBq; type: ADME, tissue-based
[27] = test system: Nucleic Acid; test: Ratio of drug level in midbrain to cerebellum in Papio anubis midbrain at 137.4 +/- 66.8 MBq measured 90 mins post dose; type: ADME; settings: 1.5 h
[28] = Stability in Papio anubis plasma assessed as intact compound level at 137.4 +/- 66.8 MBq measured 30 mins post dose; type: ADME, cell-free; settings: read-out: Stability
[29] = Drug distribution in Papio anubis midbrain assessed as drug efflux constant at 137.4 +/- 66.8 MBq; type: ADME, tissue-based
[30] = Drug uptake in Papio anubis ventral striatum at 137.4 +/- 66.8 MBq measured 90 mins post dose by dynamic PET scanning method; type: ADME, tissue-based; settings: 1.5 h
[31] = Drug uptake in Papio anubis caudate nucleus at 137.4 +/- 66.8 MBq measured 60 mins post dose co-treated with DAT ligand [18F]PR04.MZ by dynamic PET scanning method; type: ADME, tissue-based; settings: 1 h
[32] = Drug distribution in Papio anubis ventral striatum assessed as drug influx constant at 137.4 +/- 66.8 MBq; type: ADME, tissue-based
[33] = Drug distribution in Papio anubis caudate nucleus assessed as drug influx constant at 137.4 +/- 66.8 MBq; type: ADME, tissue-based
[34] = In vivo binding affinity to DAT in Papio anubis ventral striatum assessed as binding potential at 137.4 +/- 66.8 MBq; type: ADME, organism-based
[35] = Drug distribution in Papio anubis caudate nucleus assessed as drug efflux constant at 137.4 +/- 66.8 MBq; type: ADME, tissue-based
[36] = Drug uptake in Papio anubis putamen assessed per 100 ml at 137.4 +/- 66.8 MBq measured 25 +/- 2.5 mins post dose by dynamic PET scanning method; type: ADME, tissue-based
[37] = Drug uptake in Papio anubis caudate nucleus at 137.4 +/- 66.8 MBq measured 60 mins post dose co-treated with 1.5 mg/kg DAT ligand GBR12909 by dynamic PET scanning method; type: ADME, organism-based; set-up: dose 1.5 mg/kg; settings: in vivo, 1 h
[38] = In vivo binding affinity to DAT in Papio anubis cerebellum assessed as binding potential at 137.4 +/- 66.8 MBq; type: ADME, organism-based
[39] = In vivo binding affinity to DAT in Papio anubis putamen assessed as binding potential at 137.4 +/- 66.8 MBq; type: ADME, organism-based
[40] = Drug uptake in Papio anubis ventral striatum at 137.4 +/- 66.8 MBq measured 45 mins post dose by dynamic PET scanning method; type: ADME, tissue-based; settings: 0.75 h
[41] = Drug uptake in Papio anubis mid brain at 137.4 +/- 66.8 MBq measured 3.5 mins post dose by dynamic PET scanning method; type: ADME, tissue-based, Midbrain
[42] = In vivo binding affinity to DAT in Papio anubis caudate nucleus assessed as binding potential at 137.4 +/- 66.8 MBq; type: ADME, organism-based
[43] = Drug uptake in Papio anubis striatum assessed per 100 ml at 137.4 +/- 66.8 MBq measured 25 +/- 2.5 mins post dose by dynamic PET scanning method; type: ADME, tissue-based
[44] = Drug uptake in Papio anubis striatum assessed per 100 ml at 137.4 +/- 66.8 MBq measured 90 mins post dose by dynamic PET scanning method; type: ADME, tissue-based; settings: 1.5 h
[45] = In vivo binding affinity to DAT in Papio anubis midbrain assessed as binding potential at 137.4 +/- 66.8 MBq; type: ADME, organism-based
[46] = target: T1, Sodium-dependent dopamine transporter; test: Binding affinity to DAT

T1 sequence (Q01959 whole entry): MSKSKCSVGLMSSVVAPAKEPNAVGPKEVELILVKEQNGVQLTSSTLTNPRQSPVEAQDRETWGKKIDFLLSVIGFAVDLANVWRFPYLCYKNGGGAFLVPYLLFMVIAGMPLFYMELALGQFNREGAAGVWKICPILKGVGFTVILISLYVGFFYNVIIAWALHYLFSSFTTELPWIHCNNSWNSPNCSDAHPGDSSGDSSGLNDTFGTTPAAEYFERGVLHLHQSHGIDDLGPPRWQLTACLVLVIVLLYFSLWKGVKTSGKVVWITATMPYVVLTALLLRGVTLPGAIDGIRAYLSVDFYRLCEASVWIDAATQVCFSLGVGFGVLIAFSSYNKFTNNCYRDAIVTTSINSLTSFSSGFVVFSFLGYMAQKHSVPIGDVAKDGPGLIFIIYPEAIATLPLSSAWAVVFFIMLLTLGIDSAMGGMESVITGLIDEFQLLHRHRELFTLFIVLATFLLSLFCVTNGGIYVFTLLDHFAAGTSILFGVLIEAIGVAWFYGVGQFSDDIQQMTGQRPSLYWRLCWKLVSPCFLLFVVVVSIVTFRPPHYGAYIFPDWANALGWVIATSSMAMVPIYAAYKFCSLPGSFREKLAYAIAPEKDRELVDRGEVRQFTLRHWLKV
T2 sequence (P23975 whole entry): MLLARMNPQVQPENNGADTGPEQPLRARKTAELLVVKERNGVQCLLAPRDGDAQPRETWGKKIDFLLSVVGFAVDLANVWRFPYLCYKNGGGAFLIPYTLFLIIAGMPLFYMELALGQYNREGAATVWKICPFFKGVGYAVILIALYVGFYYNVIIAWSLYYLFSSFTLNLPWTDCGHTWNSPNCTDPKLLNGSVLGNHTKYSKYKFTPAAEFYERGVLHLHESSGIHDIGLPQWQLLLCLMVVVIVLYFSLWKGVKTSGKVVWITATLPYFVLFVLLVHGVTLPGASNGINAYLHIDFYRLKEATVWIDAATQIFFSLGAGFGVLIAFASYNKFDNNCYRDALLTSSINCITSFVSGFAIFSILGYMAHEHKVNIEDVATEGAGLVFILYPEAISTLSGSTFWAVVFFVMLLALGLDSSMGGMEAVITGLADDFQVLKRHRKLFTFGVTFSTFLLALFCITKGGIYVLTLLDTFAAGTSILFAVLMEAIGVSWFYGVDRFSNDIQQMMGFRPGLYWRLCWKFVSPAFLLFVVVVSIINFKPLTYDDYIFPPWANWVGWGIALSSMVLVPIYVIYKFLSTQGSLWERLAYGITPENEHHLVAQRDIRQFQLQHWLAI
Sequence of Sodium-dependent dopamine transporter (Rattus norvegicus, UniProt P23977) (P23977 whole entry): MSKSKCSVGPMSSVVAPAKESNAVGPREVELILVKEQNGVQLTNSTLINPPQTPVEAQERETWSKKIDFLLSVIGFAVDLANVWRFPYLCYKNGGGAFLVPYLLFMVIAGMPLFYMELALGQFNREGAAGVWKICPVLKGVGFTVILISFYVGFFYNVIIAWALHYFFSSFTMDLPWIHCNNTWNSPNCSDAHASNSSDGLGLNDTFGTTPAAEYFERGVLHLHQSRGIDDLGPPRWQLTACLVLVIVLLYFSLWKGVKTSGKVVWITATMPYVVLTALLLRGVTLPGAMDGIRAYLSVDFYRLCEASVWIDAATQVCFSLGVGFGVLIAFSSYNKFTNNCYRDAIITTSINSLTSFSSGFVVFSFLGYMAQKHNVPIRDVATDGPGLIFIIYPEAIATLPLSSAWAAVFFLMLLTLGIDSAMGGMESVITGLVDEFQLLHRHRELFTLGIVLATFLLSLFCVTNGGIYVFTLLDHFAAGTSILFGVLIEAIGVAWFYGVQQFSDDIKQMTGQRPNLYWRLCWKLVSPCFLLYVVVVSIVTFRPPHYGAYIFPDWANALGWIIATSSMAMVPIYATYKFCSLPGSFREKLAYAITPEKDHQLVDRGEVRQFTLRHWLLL
T3 sequence (P31645 whole entry): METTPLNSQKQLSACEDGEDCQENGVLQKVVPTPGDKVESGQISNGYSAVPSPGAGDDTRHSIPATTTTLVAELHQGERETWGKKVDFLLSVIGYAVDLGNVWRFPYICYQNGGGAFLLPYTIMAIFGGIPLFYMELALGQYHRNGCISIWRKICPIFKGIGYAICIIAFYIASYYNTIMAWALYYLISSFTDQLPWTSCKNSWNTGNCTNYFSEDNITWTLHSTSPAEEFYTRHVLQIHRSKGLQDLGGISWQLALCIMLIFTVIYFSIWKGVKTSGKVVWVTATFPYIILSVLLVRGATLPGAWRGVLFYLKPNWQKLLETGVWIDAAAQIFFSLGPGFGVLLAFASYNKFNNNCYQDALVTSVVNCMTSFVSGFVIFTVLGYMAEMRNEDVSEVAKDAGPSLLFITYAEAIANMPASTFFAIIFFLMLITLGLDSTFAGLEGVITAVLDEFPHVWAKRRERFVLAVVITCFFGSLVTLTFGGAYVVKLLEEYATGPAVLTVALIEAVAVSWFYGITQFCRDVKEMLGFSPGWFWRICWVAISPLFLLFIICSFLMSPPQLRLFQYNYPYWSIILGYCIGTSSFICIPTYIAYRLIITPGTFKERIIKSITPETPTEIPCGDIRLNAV

COC(=O)[C@H]1[C@@H](c2ccc(C)cc2)C[C@@H]2CC[C@H]1N2C/C=C/I
Kd [1]: 4 nM

COC(=O)[C@H]1[C@@H](c2ccc(C)cc2)C[C@@H]2CC[C@H]1N2CC#CCF
IC50 [2]: 3.26 nM | IC50 [3]: 31 nM | IC50 [4]: 1.93 nM | IC50 [5]: 108 nM | logD [6]: 2.7 | IC50 [7]: 240 nM | IC50 [8]: 22.5 nM

COC(=O)[C@H]1[C@@H](c2ccc(C)cc2)C[C@@H]2CC[C@H]1N2C/C=C/CF
Kd [1]: 9 nM

Cc1ccc([C@H]2C[C@@H]3CC[C@H]([C@H]2C(=O)O[11CH3])N3CC#CCF)cc1
Drug uptake [9]: 3.8 %ID/ml | Drug uptake [10]: Not Active | remaining at 1 h [11]: > 95% | Activity [12]: 0.144 ml/cm3/min | Drug uptake [13]: 1.3 %ID/ml | Drug uptake [14]: 6.7 %ID | Drug uptake [15]: 4.8 %ID | Activity [16]: 0.004 min⁻¹ | Activity [17]: 0.0076 min⁻¹ | Drug uptake [18]: Not Active | Activity [19]: 0.015 ml/cm3/min | Drug uptake [20]: Not Active | Drug uptake [21]: Not Active | Activity [22]: 0.036 min⁻¹ | Fu [23]: 4.4 %ID | Drug uptake [24]: 0.8 %ID/ml | Drug uptake [25]: 26.1 %ID | Activity [26]: 0.064 ml/cm3/min | Ratio [27]: 4.6 | remaining at 0.5 h [28]: 39% | Activity [29]: 0.016 min⁻¹ | Drug uptake [30]: 2.55 %ID/ml | Drug uptake [31]: Not Active | Activity [32]: 0.03 ml/cm3/min | Activity [33]: 0.017 ml/cm3/min | Activity [34]: 8.2 ml/cm3 | Activity [35]: 0.004 min⁻¹ | Drug uptake [36]: 7.6 %ID | Drug uptake [37]: Not Active | Activity [38]: 0 ml/cm3 | Activity [39]: 36.8 ml/cm3 | Drug uptake [40]: 3.1 %ID/ml | Drug uptake [41]: 2.8 %ID/ml | Activity [42]: 29.3 ml/cm3 | Drug uptake [43]: 7.6 %ID | Drug uptake [44]: 6.7 %ID | Activity [45]: 2.7 ml/cm3

COC(=O)[C@H]1[C@@H](c2ccc(Cl)cc2)C[C@@H]2CC[C@H]1N2CCF
Ki [46]: 8 nM
